In publication PMC11022890 (Drug Metabolism and Disposition, 2021):

Experiments:
[1] = target: T1, UGT1A6 (Homo sapiens, UniProt P19224); experiment: Inhibition of serotonin glucuronidation in rUGT1A6 microsomes; format: in vitro ADME; details: for inhibition vs control without cannabinoid: serotonin
T1 sequence (P19224 27-532): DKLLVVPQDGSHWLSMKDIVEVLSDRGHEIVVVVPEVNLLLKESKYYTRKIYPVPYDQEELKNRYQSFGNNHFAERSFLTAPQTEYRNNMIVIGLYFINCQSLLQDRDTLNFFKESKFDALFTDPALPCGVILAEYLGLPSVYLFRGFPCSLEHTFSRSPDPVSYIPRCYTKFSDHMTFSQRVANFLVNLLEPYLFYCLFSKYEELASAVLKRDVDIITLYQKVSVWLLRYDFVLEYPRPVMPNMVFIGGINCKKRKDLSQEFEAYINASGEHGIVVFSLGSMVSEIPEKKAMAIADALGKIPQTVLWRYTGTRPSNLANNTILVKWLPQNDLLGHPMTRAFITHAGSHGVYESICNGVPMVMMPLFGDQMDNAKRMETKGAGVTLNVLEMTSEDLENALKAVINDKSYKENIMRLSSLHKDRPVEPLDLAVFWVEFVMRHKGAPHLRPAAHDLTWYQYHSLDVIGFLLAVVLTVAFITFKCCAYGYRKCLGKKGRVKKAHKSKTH

[2] = target: T2, UGT1A9 (Homo sapiens, UniProt O60656); experiment: Inhibition of acetaminophen glucuronidation in rUGT1A9 microsomes; format: in vitro ADME; details: IC50, probe substrate acetaminophen
T2 sequence (O60656 26-530): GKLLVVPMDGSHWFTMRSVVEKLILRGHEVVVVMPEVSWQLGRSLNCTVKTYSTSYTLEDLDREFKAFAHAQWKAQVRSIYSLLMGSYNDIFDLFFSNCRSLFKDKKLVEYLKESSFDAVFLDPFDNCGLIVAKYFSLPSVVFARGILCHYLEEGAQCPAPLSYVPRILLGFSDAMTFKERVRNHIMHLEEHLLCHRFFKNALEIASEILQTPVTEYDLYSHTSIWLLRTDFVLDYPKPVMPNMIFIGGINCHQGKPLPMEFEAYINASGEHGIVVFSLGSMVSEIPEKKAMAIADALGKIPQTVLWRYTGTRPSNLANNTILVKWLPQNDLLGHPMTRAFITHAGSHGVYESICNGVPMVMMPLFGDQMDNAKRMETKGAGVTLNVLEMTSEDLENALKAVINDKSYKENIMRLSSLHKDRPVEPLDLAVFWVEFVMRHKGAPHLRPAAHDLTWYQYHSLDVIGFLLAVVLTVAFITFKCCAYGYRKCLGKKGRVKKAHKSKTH

[3] = 400 mg oral dose; ref Manini et al., 2015; cited from earlier work
[4] = target: T2, UGT1A9; experiment: in vitro; details: both, HLM
[5] = target: T3, UGT1A9 in human kidney microsomes (Homo sapiens, UniProt O60656); experiment: Inhibition of propofol glucuronidation; details: HKM
T3 sequence (O60656 26-530): T2 sequence (O60656 26-530)

[6] = target: T4, UGT1A6 in human kidney microsomes (Homo sapiens, UniProt P19224); experiment: Inhibition of serotonin glucuronidation; details: HKM
T4 sequence (P19224 27-532): T1 sequence (P19224 27-532)

[7] = target: T5, UGT1A6 in human liver microsomes (Homo sapiens, UniProt P19224); experiment: Inhibition of serotonin glucuronidation; details: HLM
T5 sequence (P19224 27-532): T1 sequence (P19224 27-532)

[8] = target: T3, UGT1A9 in human kidney microsomes; experiment: Inhibition of acetaminophen glucuronidation; details: HKM
[9] = target: T6, UGT2B10 (Homo sapiens, UniProt P36537); experiment: Screening: inhibition of nicotine glucuronidation in rUGT2B10 microsomes; format: in vitro ADME; details: 100 µM
T6 sequence (P36537 24-528): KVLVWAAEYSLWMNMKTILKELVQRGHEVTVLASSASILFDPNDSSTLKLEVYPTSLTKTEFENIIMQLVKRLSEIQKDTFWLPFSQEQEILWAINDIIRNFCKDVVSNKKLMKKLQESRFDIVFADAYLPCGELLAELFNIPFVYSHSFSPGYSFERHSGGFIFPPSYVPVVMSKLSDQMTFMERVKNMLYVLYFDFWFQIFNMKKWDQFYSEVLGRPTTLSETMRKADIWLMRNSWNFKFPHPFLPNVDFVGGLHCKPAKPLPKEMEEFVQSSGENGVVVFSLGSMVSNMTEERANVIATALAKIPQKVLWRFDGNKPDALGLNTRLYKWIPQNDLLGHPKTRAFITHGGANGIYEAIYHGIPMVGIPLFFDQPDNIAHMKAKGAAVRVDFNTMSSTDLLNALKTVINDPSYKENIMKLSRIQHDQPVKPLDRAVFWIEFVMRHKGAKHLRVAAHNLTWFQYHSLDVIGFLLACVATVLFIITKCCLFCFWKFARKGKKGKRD

[10] = Nonspecific binding; format: in vitro ADME; details: human
[11] = Nonspecific binding; format: in vitro ADME; details: human, incubation mixture with human liver microsomes
[12] = Nonspecific binding; format: in vitro ADME; details: human, incubation mixture with human kidney microsomes
[13] = IC50,u (binding-corrected IC50), probe substrate serotonin
[14] = IC50, probe substrate furosemide
[15] = IC50,u (binding-corrected IC50), probe substrate furosemide
[16] = IC50,u (binding-corrected IC50), probe substrate propofol
[17] = IC50, probe substrate serotonin
[18] = IC50, probe substrate acetaminophen
[19] = IC50,u (binding-corrected IC50), probe substrate acetaminophen

Row | SMILES | inhibition vs control without cannabinoid ([1]; 10 µM, screening) [%] | inhibition vs control without cannabinoid ([1]; 100 µM, screening in duplicate) [%] | IC50 [1, 13] [nM] | IC50 [2] [µM] | average plasma level [3] [µg/L] | IC50 [4, 14] [µM] | IC50 [4, 15] [µM] | IC50 ([5]; IC50, probe substrate propofol) [µM] | IC50 [5, 16] [µM] | IC50 [6, 17] [µM] | IC50 [6, 13] [µM] | IC50 [7, 17] [µM] | IC50 [7, 13] [µM] | IC50 [8, 18] [µM] | IC50 [8, 19] [µM] | inhibition vs control without cannabinoid [9] [%] | fraction unbound [10] | fraction unbound [11] | fraction unbound [12]
1 | C=C(C)[C@@H]1CCC(C)=C[C@H]1c1c(O)cc(CCCCC)cc1O [CBD, cannabidiol] | 25 | 54 | 400 ± 100 | 1.9 ± 0.29 | 181 | 29 ± 4 | 1.5 ± 0.2 | 5.5 ± 0.56 | 0.34 ± 0.035 | 17 ± 3.7 | 1 ± 0.23 | 28 ± 6.5 | 1.4 ± 0.33 | 3.8 ± 0.82 | 0.24 ± 0.05 | – | – | – | –
2 | CCCCCc1cc(O)c2c(c1)OC(C)(C)c1ccc(C)cc1-2 [CBN, cannabinol] | – | 43 | – | 6.9 ± 0.54 | – | 30 ± 4.5 | 2.8 ± 0.96 | 7.5 ± 1.7 | 0.9 ± 0.2 | – | – | – | – | 21 ± 3.4 | 2.6 ± 0.41 | 47 | 0.085 ± 0.005 | 0.092 ± 0.006 | 0.12 ± 0.015
